Test results: patent publication US10550091B2, “1,4,5-substituted 1,2,3-triazole analogues as antagonists of the pregnane X receptor” (ST. JUDE CHILDREN'S RESEARCH HOSPITAL, priority 2016, dated 2020)

Columns and labels:
hPXR = test: liver CYP3A expression in hPXR-tg mice; assay type: in vivo, mouse; conditions: RIF 10 mg/kg plus test compound 200 mg/kg, 72 h
Description: Briefly, mouse liver Cyp3a11 mRNA was analyzed by real-time PCR in hPXR-tg mice treated with vehicle control (Vehicle), RIF (10 mg/kg) or RIF (10 mg/kg) plus test compound (200 mg/kg) for 72 h. Each data point represents the level of Cyp3a11 mRNA (FIG. 3A) or protein (FIG. 3B) in an individual mouse; lines indicate the mean value for 3-7 mice per group.
hPXR-tg mice were generated previously (Xie et al., 2000). Five mice in each group were dosed orally with vehicle control or 10 mg/kg RIF, every 24 h for three days. Eight hours after the last dose, the animals were euthanized by C02 and liver tissues were harvested. A piece of each liver was preserved in RNAlater solution (Invitrogen) at 4° C. for mRNA isolation. The remaining tissue was instantly frozen in liquid nitrogen and stored at −80° C. for total protein extraction. […]

[1] = tested on: primary human hepatocytes (PHHs); test: paclitaxel metabolism in primary human hepatocytes; assay type: cell-based; conditions: 1 μM PTX with 10 μM test compound, 24 and 48 hr
Description: FIGS. 1A-1D show representative data for a representative disclosed compound showing that the tested compound modulates the activity of an hPXR agonist in primary human hepatocytes (“PHHs”). […] PHHs were pretreated with DMSO (0.1%), 1.6 μM of rifampicin (RIF), 0.5 μM of paclitaxel (PTX) or 5 μM of PTX, respectively, in the absence and presence of 10 μM of the test compound. After 72 hr, PHHs then received 3.3 μM of midazolam (MDZ) treatment for 4 h. The concentrations of 1′-OH MDZ (MDZ metabolite) in the media of each pretreatment condition were determined using LC/MS/MS as described in the Examples. […] PHHs were also treated with 1 μM of PTX in the absence and presence of 10 μM of the test compound, and then the concentrations of major PTX metabolites, 3-OH PTX (by CYP3A4) and 6α-OH PTX (by CYP2C8), were determined using LC/MS/MS at 24 hr and 48 hr of treatment, respectively. The concentrations of 3-OH PTX and 6α-OH PTX are shown in FIGS. 1B and 1C, respectively.
Midazolam and 1-OH midazolam were from BD Gentest. Midazolam-D4 maleate (internal standard, IS) was from Cerilliant; Paclitaxel and 3′-p-Hydroxypaclitaxel were from Sigma; and 6α-hydroxy Paclitaxel was from Cayman Chemical. 100 μl of reaction medium at each different time point was collected and 200 μl of acetonitrile containing IS was added. […] Calibration and quality control samples were prepared. […]

[2] = tested on: primary human hepatocytes (PHHs); test: midazolam metabolism in primary human hepatocytes after hPXR agonist pretreatment; assay type: cell-based; conditions: PHHs pretreated 72 hr with DMSO, 1.6 μM RIF, 0.5 or 5 μM PTX, with 10 μM test compound; then 3.3 μM MDZ 4 h
Description: Midazolam and 1-OH midazolam were from BD Gentest. Midazolam-D4 maleate (internal standard, IS) was from Cerilliant; Paclitaxel and 3′-p-Hydroxypaclitaxel were from Sigma; and 6α-hydroxy Paclitaxel was from Cayman Chemical. 100 μl of reaction medium at each different time point was collected and 200 μl of acetonitrile containing IS was added. This solution was then vigorously mixed for 10 min and centrifuged at 10,000 rpm for 10 min. Calibration and quality control samples were prepared. 5 μl of the samples was injected onto a Waters Acquity UPLC BEH C18 column (2.1×50 mm, 1.7 μm), using a Waters Acquity UPLC system. Chromatographic separation was performed by gradient elution at a constant flow rate of 1 mL/min for 15 min. The gradient consisted of 0.1% formic acid water (mobile phase A) and methanol (mobile phase B). […] Nitrogen was applied as curtain, collision and drying gas at 60 psi. Declustering potentials, entrance potential and collision energy was as follows: 120 V, 12 V and 35 V for MDZ; 70 V, 12 V and 30 V for 1-OH MDZ; and 120 V, 12 V and 37 V for IS.

hPXR-tg mice = test: loss of righting reflex (LORR) assay in hPXR transgenic mice; assay type: in vivo, mouse; conditions: RIF 10 mg/kg plus test compound 200 mg/kg every 24 h for three days
Description: Loss of righting reflex (LORR) duration was recorded as described in Examples to measure metabolism of the anesthetic ([…]) in hPXR-tg, mice before and after treatment with vehicle, RIF, and RIF plus the test compound as indicated. Each data point represents LORR duration in an individual mouse; lines indicate LORR duration change in individual mouse before and after treatment. P values indicate comparison of values by paired t test.
Mice were intraperitoneally injected with 250 mg/kg of 2,2,2-tribromoethanol, which is metabolically cleared only via mouse CYP3A11. After the mice lost their righting reflex, they were placed on their backs under a heat lamp. The duration of LORR was measured as the time from the start of LORR to recovery (i.e., when mice could right themselves after being placed on their backs twice within 1 min). A baseline LORR duration was established for each mouse at the administered dose of 2,2,2-tribromoethanol. […] The paired Student's t-test was used to compare LORR duration between baseline and after treatment. A P value <0.05 was considered to indicate a significant difference between compared groups.

CYP3A4 promoter reporter = CYP3A4 promoter reporter activity in hPXR-CYP3A4-luc reporter mice (bioluminescence imaging); assay type: in vivo, mouse; conditions: RIF 10 mg/kg plus test compound 150 mg/kg every 24 h for 2 days; imaging 10 h after last treatment
Description: Individual mouse received 3 rounds of sequential treatment of vehicle control (Vehicle), RIF (10 mg/kg) and RIF (10 mg/kg) plus the test compound (150 mg/kg) every 24 h for 2 days, respectively, with a washout period of 72-hour between two rounds of treatment. The luciferase activity in these reporter mice was recorded by bioluminescence imaging 10 h after the last treatment of each round, and the induction of CYP3A4 promoter reporter activity was calculated as described in Examples. Each data point represents the induction of CYP3A4 promoter reporter activity by the treatment in an individual mouse, and dos lines indicate the CYP3A4 promoter reporter activity change in individual mouse after following round of treatment. p values are indicated between the two treatment compared by paired t test.
10 hours after the last treatment of each round, the mice were imaged as described above. Uniform regions of interest were drawn around the liver, and total photon flux was analyzed with Living Image 3.2 software (Xenogen). The induction of CYP3A4-luc reporter activity was calculated using the imaging from the same mouse as follows: induction rate=total photon flux (after treatment)/total photon flux (before treatment).

[3] = tested on: LS 180 cells stably overexpressed hPXR; test: sensitization of colon cancer cells to anti-cancer drugs (viability); assay type: cell-based, human; conditions: absence vs presence of 10 μM test compound, 96 h
Description: FIGS. 2A-2D show representative data for a representative disclosed compound showing that the tested compound sensitizes colon cancer cells to representative anti-cancer drugs. […] LS 180 cells stably overexpressed hPXR were treated with serial dilutions of paclitaxel (PTX; see FIG. 2A), docetaxel (TXT; see FIG. 2B), vinblastine (VBL; see FIG. 2C), or vincristine (VCR; see FIG. 2D) in the absence and presence of 10 μM of the test compound as indicated for 96 h. Values of the viability of compound-treated cells were expressed as a percentage of that of DMSO-treated cells, and drug concentration is expressed in a log scale. Data at each point represents mean±SEM from quadruplicate measurements.

COc1ccc(OC)c(-n2nnc(S(=O)(=O)c3ccc(C(C)(C)C)cc3)c2C)c1 [4-((4-(tert-butyl)phenyl)sulfonyl)-1-(2,5-dimethoxyphenyl)-5-methyl-1H-1,2,3-triazole]
hPXR-mediated increase in CYP3A expression (liver Cyp3a11 mRNA, CYP3A protein) (hPXR): inhibits the hPXR-mediated increase in CYP3A expression
metabolism of PTX to 3-OH PTX (by CYP3A4) [1]: effectively blocked
metabolism of PTX to 6α-OH PTX (by CYP2C8) [1]: effectively blocked
metabolism of MDZ (1′-OH MDZ in the media) [2]: essentially blocked
RIF-induced metabolism of the anesthetic, by LORR duration (hPXR-tg mice): significantly inhibited
RIF-induced expression of the reporter under the control of the CYP3A4 promoter (CYP3A4 promoter reporter): significantly reduced
apparent IC50 for PTX, TXT, VBL, or VCR [3]: significantly higher in the absence of the test compound
